Test results taken from US7611713B2 (priority 1999, dated 2009).
No end group written: not given here.

Columns and labels:
B*5301 = B*5301 (Homo sapiens, UniProt P01889, A329T/A93T/A95T/C349S/D201E/D98Y/E176V/E187L/E204Q/E69T/G107R/I218V/K202T/L105A/L119I/N104I/Q94N/R106L/R155S/R180L/S101N/S121R/S35A/S48A/T118I/V127L/V306I/V36M/Y140S/Y91F); test: HLA class I peptide binding assay, B*5301
B*3501 = B*3501 (Homo sapiens, UniProt P01889, A329T/A93T/A95T/C349S/D201E/D98Y/E176V/E187L/E204Q/E69T/I218V/K202T/L119I/Q94N/R155S/R180L/S121R/S35A/S48A/T118I/V127L/V306I/V36M/Y140S/Y91F); test: HLA class I peptide binding assay, B*3501
B*5401 = B*5401 (Homo sapiens, UniProt P01889, A329T/C349S/D138N/D201E/E176V/E187T/E204Q/E69G/I76V/K202T/L119W/R155S/R180L/S121T/S35A/S48A/V127L/V306I/V36M/Y140L); test: biochemical; type: binding
B*0702 = B*0702 (Homo sapiens, UniProt P01889); test: biochemical; type: binding
T helper lymphocytes = conditions: individuals regardless of HLA type; cited from earlier work

Substance	IC50 (B*5301) [nM]	IC50 (B*3501) [nM]	IC50 (B*5401) [nM]	IC50 (B*0702) [nM]	stimulation of T helper lymphocyte response (T helper lymphocytes)
FPFCLAFSY [Peptide 2511]	4.8	6.5	5.1	–	–
FPHCLAFAL [Peptide 2509]	5	–	24	25	–
FPHCLAFSA [Peptide 2513]	137	6.5	0.6	3670	–
FPHCLAFSI [Peptide 2512]	3.8	–	1	675	–
FPHCLAFSL [Peptide 2510]	15	–	–	74	–
FPIPSSWAF [Peptide 2506]	–	–	–	24	–
aKXVWANTLKAAa	–	–	–	–	stimulate the response of T helper lymphocytes from most individuals
